Consider six molecules from patent US20250051361A1, “5,6,7,8-TETRAHYDRO-2,6-NAPHTHYRIDINE DERIVATIVES AS CANCER THERAPEUTICS” (VRise Therapeutics, Inc., priority 2021, published 2025).

Counter-ions that a name gives are not always drawn.

By inhibition is commonly meant how much of the control response was suppressed. Read a low inhibition as little suppression. For orientation: IC50 means the concentration at which inhibition is half-maximal. High values mean weaker potency, low ones greater potency.

One experiment deals with HPAC cells. The experiment is described as follows: In vitro cell proliferation assay in HPAC cell line. The experiment is classed as cell-based. Particulars: Homo sapiens; for inhibition at 3 µM: TC1: Test Concentration of 3 uM; for inhibition at 10 µM: TC2: Test Concentration of 10 uM. As for the experimental part:
(§1) Test 1: In Vitro Cell Proliferation Assay in HPAC and AGS Cell Lines
(§2) Growth inhibition assays was carried out using 10% FBS supplemented media. Cells are to be seeded at a concentration of 2000-3,000 cells/well in a 96-well plate. Test compounds at a concentration range from 0.1 to 30 uM will be added after 24 hours. Growth will be assessed using the MTT or CCK-8 kit for measuring reduction at 0 h (prior to the addition of the test compound) and 72 to 96 hours after the addition of test compound. Absorbance read on a BIO-RAD iMark Microplate or any equivalent micloplate reader at a wavelength of 450 nm to 600 nm. Data will be analyzed and percent inhibition due to the test compound compared to the control is calculated accordingly.

A further experiment has as its system AGS cells. The experiment is described as follows: In vitro cell proliferation assay in AGS cell line. The experiment is classed as cell-based. Particulars: Homo sapiens; for inhibition at 3 µM: TC1: Test Concentration of 3 uM; for inhibition at 10 µM: TC2: Test Concentration of 10 uM. As for the experimental part:
as §1, §2

The target in the next experiment is T1, human KRAS G12D protein (Homo sapiens, UniProt P01116, G12D).
T1 construct: A human KRAS G12D protein (corresponding to amino acid 2-169)
T1 sequence (P01116 2-169 isoform P01116-2 G12D): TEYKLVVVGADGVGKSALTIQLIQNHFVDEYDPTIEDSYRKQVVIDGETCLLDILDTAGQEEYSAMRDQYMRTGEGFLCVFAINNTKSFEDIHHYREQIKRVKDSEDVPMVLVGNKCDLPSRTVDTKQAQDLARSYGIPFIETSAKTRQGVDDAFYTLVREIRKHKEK
The experiment is described as follows: HTRF-based nucleotide exchange assay detecting GTP binding to K-Ras. The experiment is classed as biochemical. The conditions noted are these: human KRAS G12D (amino acid 2-169), SOS1 mediated exchange. As for the experimental part:
Test 3: Nucleotide Exchange Assay HTRF-based nucleotide exchange assay detecting GTP binding to K-Ras A human KRAS G12D protein (corresponding to amino acid 2-169) was mixed with a a-GST Tb antibody (1.5× solution) and 10 uL of the solution was added to the reaction wells). Compounds (each 10 concentrations or any other concentration of choice at 3-fold or fold of choice for serial dilutions with a starting concentration of […] or or 100 μM or 50 uM) were then delivered to the reaction wells using acoustic dispenser (Echo, Labcyte) and incubated with the Kras/aGST-Tb antibody for 1-hour at room temperature. […] HTRF based SOS1 mediated exchange of GDP to GTP was measured on a microplate reader […] (BMG Labtech) at an excitation wavelength of 337 nm and emission wavelengths of 665 and 620 nm. No-SOS1 reaction or highest control compound concentration was used as blank and % inhibition was calculated and/or IC50 was determined using Sigmoidal dose response (variable slope) equation.

The test system of another experiment is CT-26. As to the kind of experiment: In vitro cell proliferation assay in KRASG12 cell lines (CT-26). Format: cell-based. Particulars: Mus musculus, CT26; Cell Line CT-26; Cell Titer-Glo, 3 day (2D) or 7 day (3D). The procedure: Test 2: In Vitro Cell Proliferation Assay in KRASG12 Cell lines Growth inhibition assays was carried out using 10% FBS supplemented media. Cells were seeded at a desired concentration of 1000-2,000 cells/well in a well plate with desired number of wells. Test compounds at a desired concentration range were added after 24 hours. Growth was assessed using the Cell Titer-Glo (CTG, Cell Signaling) for measuring reduction at 0 h (prior to the addition of the test compound) and 3 day (2D) or 7 day (3D) after the addition of test compound. Absorbance read on a BIO-RAD iMark Microplate or any equivalent microplate reader at a predetermined a wavelength for e.g. 450 nm. Data was be analysed and percent inhibition and/or IC50 for each test compound is calculated accordingly.
Background: Cellular ATP, detected with luciferase, serves as a proxy for viable cell number.

For the molecule `N#Cc1c(OCC23CCCN2C[C@H](F)C3)nc(N2CC3CCC(C2)N3)c2c1CN(Cc1ccccc1)CC2` (stereo partly drawn) [Ex 19, 6-benzyl-1-(3,8-diazabicyclo[3.2.1]octan-3-yl)-3-(((2R)-2-fluorotetrahydro-1H-pyrrolizin-7a(5H)-yl)methoxy)-5,6,7,8-tetrahydro-2,6-naphthyridine-4-carbonitrile Hydrochloride], in the experiment on HPAC cells, the inhibition at 3 µM was at most 25% and the inhibition at 10 µM fell in the range of 75 to 100%. In the experiment on AGS cells, the inhibition at 3 µM lay within 25 to 50% and the inhibition at 10 µM was 50 to 75%. This molecule also registered an IC50 on human KRAS G12D protein of over 1 µM.

For the molecule `N#Cc1c(OCC23CCCN2C[C@H](F)C3)nc(N2CC3CCC(C2)N3)c2c1CN(c1cc(O)cc3ccccc13)CC2` (stereo partly drawn) [Ex 25, 1-(3,8-diazabicyclo[3.2.1]octan-3-yl)-3-(((2R)-2-fluorotetrahydro-1H-pyrrolizin-7a(5H)-yl)methoxy)-6-(3-hydroxynaphthalen-1-yl)-5,6,7,8-tetrahydro-2,6-naphthyridine-4-carbonitrile Hydrochloride], the IC50 in the experiment with CT-26 is 5 to 10 µM; at human KRAS G12D protein, under 0.025 µM. For the same molecule, the inhibition at 3 µM with HPAC cells lay within 25 to 50%; with AGS cells, 75 to 100%. Moreover, the inhibition at 10 µM with HPAC cells and with AGS cells was 75 to 100% each time.

For `N#Cc1c(OCC2(CN3CCOCC3)CC2)nc(N2C[C@H]3CC[C@@H](C2)N3)c2c1CN(Cc1ccccc1)CC2` [Ex 24, 6-benzyl-1-((1R,5S)-3,8-diazabicyclo[3.2.1]octan-3-yl)-3-((1-(morpholinomethyl)cyclopropyl)methoxy)-5,6,7,8-tetrahydro-2,6-naphthyridine-4-carbonitrile Hydrochloride], in the experiment on HPAC cells, the inhibition at 3 µM is at most 25% and the inhibition at 10 µM was 25 to 50%. In addition, at human KRAS G12D protein, the IC50 is over 1 µM.

On to `CN1CCC[C@H]1COc1nc(N2CC3CCC(C2)N3)c2c(c1C#N)CN(c1cccc3cccc(Cl)c13)CC2` [Ex 16, 1-(3,8-diazabicyclo[3.2.1]octan-3-yl)-6-(8-chloronaphthalen-1-yl)-3-(((S)-1-methylpyrrolidin-2-yl)methoxy)-5,6,7,8-tetrahydro-2,6-naphthyridine-4-carbonitrile Hydrochloride], for which the IC50 with CT-26 was under 2.5 µM; at human KRAS G12D protein it was 0.2 to 1 µM. In addition, the inhibition at 3 µM in the experiment with HPAC cells and in the experiment on AGS cells was 50 to 75% in each case. The values for the inhibition at 10 µM in the experiment with HPAC cells and in the experiment on AGS cells were 75 to 100% and 50 to 75%, respectively.

Regarding `CN1CCC[C@H]1COc1nc(N2CC3CCC(C2)N3)c2c(c1C#N)CN(Cc1ccccc1)CC2` [Ex 18, 6-benzyl-1-(3,8-diazabicyclo[3.2.1]octan-3-yl)-3-(((S)-1-methylpyrrolidin-2-yl)methoxy)-5,6,7,8-tetrahydro-2,6-naphthyridine-4-carbonitrile Hydrochloride], in the experiment with HPAC cells, the inhibition at 3 µM was at most 25% and the inhibition at 10 µM was 25 to 50%. Also, in the experiment with AGS cells, the inhibition at 3 µM lay within 25 to 50% and the inhibition at 10 µM lay in the range of 75 to 100%.

As for `N#Cc1c(OCC23CCCN2C[C@H](F)C3)nc(N2CC3CCC(C2)N3)c2c1CN(c1cccc3cccc(Cl)c13)CC2` (stereo partly drawn) [Ex 17, 1-(3,8-diazabicyclo[3.2.1]octan-3-yl)-6-(8-chloronaphthalen-1-yl)-3-(((2R)-2-fluorotetrahydro-1H-pyrrolizin-7a(5H)-yl)methoxy)-5,6,7,8-tetrahydro-2,6-naphthyridine-4-carbonitrile Hydrochloride], the IC50 was in the range of 2.5 to 5 µM in the experiment with CT-26 and 0.025 to 0.05 µM at human KRAS G12D protein. Besides, the inhibition at 3 µM in the experiment with HPAC cells and in the experiment on AGS cells was 25 to 50% each time. Further, the inhibition at 10 µM in the experiment on HPAC cells and with AGS cells was 75 to 100% each time.
